Assay results taken from the supplement of paper PMC10307832.

Assays:
Test in all cases: relative viability (nuclei count vs DMSO), 5 days (fraction); higher = more cells survive
IPA-3 + Decitabine = compound: C1=CC=C2C(=C1)C=CC(=C2SSC3=C(C=CC4=CC=CC=C43)O)O [IPA-3] + Nc1ncn([C@H]2C[C@H](O)[C@@H](CO)O2)c(=O)n1 [Decitabine] (partner 2 µM)
Procedure, shortened: (§1)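 After 5 days of treatment, lung cancer cells in 1536-well plates were fixed and stained in a single step (final 0.05% Triton X-100, 1% formaldehyde, 1 ug/ml Hoechst) and their nuclei counted on 4× images. Treatment had been applied by pin tool the day after seeding as one drug alone or as a fixed anchor-drug dose with five library-drug doses (not always all listed) in √10 steps. Relative viability is the nuclei count of treated wells divided by that of vehicle wells, and values are medians of duplicate plates.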

Doramapimod + Bortezomib = compound: Cc1ccc(-n2nc(C(C)(C)C)cc2NC(=O)Nc2ccc(OCCN3CCOCC3)c3ccccc23)cc1 [Doramapimod] + CC(C)C[C@H](NC(=O)[C@H](Cc1ccccc1)NC(=O)c1cnccn1)B(O)O [Bortezomib] (partner 0.002 µM)
Procedure, shortened: as §1

Doramapimod + Foretinib = compound: Cc1ccc(-n2nc(C(C)(C)C)cc2NC(=O)Nc2ccc(OCCN3CCOCC3)c3ccccc23)cc1 [Doramapimod] + COc1cc2c(Oc3ccc(NC(=O)C4(C(=O)Nc5ccc(F)cc5)CC4)cc3F)ccnc2cc1OCCCN1CCOCC1 [Foretinib] (partner 0.25 µM)
Procedure, shortened: as §1

Row | Cell Line | relative viability (IPA-3 + Decitabine; first compound 0.2 µM) | relative viability (IPA-3 + Decitabine; first compound 0.6325 µM) | relative viability (IPA-3 + Decitabine; first compound 2 µM) | relative viability (IPA-3 + Decitabine; first compound 6.325 µM) | relative viability (IPA-3 + Decitabine; first compound 20 µM) | relative viability (Doramapimod + Bortezomib; first compound 0.02 µM) | relative viability (Doramapimod + Bortezomib; first compound 0.06325 µM) | relative viability (Doramapimod + Bortezomib; first compound 0.2 µM) | relative viability (Doramapimod + Bortezomib; first compound 0.6325 µM) | relative viability (Doramapimod + Bortezomib; first compound 2 µM) | relative viability (Doramapimod + Foretinib; first compound 0.02 µM) | relative viability (Doramapimod + Foretinib; first compound 0.06325 µM) | relative viability (Doramapimod + Foretinib; first compound 0.2 µM) | relative viability (Doramapimod + Foretinib; first compound 0.6325 µM) | relative viability (Doramapimod + Foretinib; first compound 2 µM)
1 | H3255 | 0.634 | 0.571 | 0.577 | 0.548 | 0.632 | 0.788 | 0.883 | 0.833 | 0.619 | 0.668 | 0.844 | 0.883 | 0.945 | 0.637 | 0.726
2 | NCI-H1792 | 0.72 | 0.46 | – | 0.492 | 0.568 | 0.946 | 0.952 | 0.948 | 1.05 | 0.831 | – | – | – | – | –
3 | NCI-H1563 | – | – | – | – | – | 0.871 | 0.88 | 0.993 | 1.17 | 0.873 | 0.847 | 1 | 0.962 | 0.966 | 1.08
4 | NCI-H596 | 1.09 | 0.984 | 1.06 | 0.963 | 1.08 | 0.994 | 1.13 | 1.21 | 1.24 | 1.02 | 0.907 | 0.766 | 1.01 | 0.782 | 0.855
5 | NCI-H2087 | 0.344 | 0.321 | 0.267 | 0.261 | 0.255 | 0.931 | 0.866 | 0.79 | 0.771 | 0.768 | 0.996 | 1.14 | 0.993 | 1.18 | 1.24
6 | NCI-H661 | 0.664 | 0.548 | 0.528 | 0.543 | 0.528 | 0.793 | 0.794 | 0.719 | 0.942 | 0.667 | 1.05 | 1 | 1.02 | 1.04 | 0.989
7 | NCI-H2342 | 0.772 | 0.75 | 0.737 | 0.798 | 0.839 | – | – | – | – | – | 0.91 | 1.03 | 0.975 | 1.29 | 1.13
8 | EMC-BAC-2 | 1.02 | 0.967 | 0.958 | 0.819 | 1.07 | 1.12 | 1.12 | 1.03 | 1.15 | 0.961 | 0.999 | 1.02 | 1.09 | 1.23 | 1
9 | NCI-H1355 | 0.385 | 0.36 | 0.375 | 0.349 | 0.34 | 1.23 | 1.29 | 1.29 | 1.19 | 1.16 | 0.95 | 0.986 | 0.922 | 0.972 | 0.939
10 | NCI-H23 | 0.285 | 0.313 | 0.319 | 0.329 | 0.299 | 1.01 | 1.07 | 1.06 | 1.11 | 1.04 | 0.952 | 1.05 | 0.947 | 1.05 | 0.95
11 | NCI-H1651 | 0.699 | 0.596 | 0.631 | 0.644 | 0.549 | 0.922 | 0.996 | 0.931 | 0.987 | 0.907 | 0.912 | 0.777 | 0.841 | 0.793 | 0.869
12 | NCI-H1975 | 0.472 | 0.368 | 0.357 | 0.398 | 0.356 | 0.321 | 0.324 | 0.266 | 0.363 | 0.327 | 0.961 | 0.965 | 0.952 | 0.988 | 0.924
13 | COR-L23 | 0.553 | 0.469 | 0.41 | 0.419 | 0.256 | 1.12 | 0.914 | 0.962 | 0.997 | 0.969 | 0.945 | 0.926 | 0.966 | 1.01 | 0.855
14 | HCC-44 | 0.951 | 0.943 | 0.879 | 0.924 | 0.846 | 0.941 | 1.01 | 0.814 | 0.86 | 0.833 | – | – | – | – | –
15 | LOU-NH91 | 0.821 | 0.856 | 0.815 | 0.82 | 0.888 | 0.47 | 0.506 | 0.532 | 0.444 | 0.672 | 1.01 | 0.938 | 1.02 | 1.07 | 0.681
16 | NCI-H1299 | – | – | – | – | – | 1.03 | 1.09 | 1.04 | 1.06 | 1.05 | 1.07 | 1.09 | 1.15 | 1.04 | 1.01
17 | LK-2 | 0.297 | 0.333 | 0.32 | 0.442 | 0.346 | – | – | – | – | – | 1.04 | 1.04 | 0.919 | 1.05 | 0.925
18 | NCI-H358 | 0.229 | 0.199 | 0.196 | 0.2 | 0.108 | – | – | – | – | – | 0.579 | 0.563 | 0.682 | 0.826 | 0.63
19 | SK-MES-1 | 0.455 | 0.394 | 0.423 | 0.296 | 0.31 | – | – | – | – | – | 0.965 | 0.864 | 0.773 | 1.04 | 0.816
20 | SW 900 | 0.501 | 0.453 | 0.49 | 0.415 | 0.476 | – | – | – | – | – | 0.557 | 0.933 | 0.877 | 1.11 | 0.892
21 | EBC-1 | – | – | – | – | – | 0.549 | 0.563 | 0.473 | 0.684 | 0.549 | 0.117 | 0.102 | 0.0979 | 0.0935 | 0.1
22 | NCI-H1395 | 0.688 | 0.666 | 0.728 | 0.687 | 0.714 | – | – | – | – | – | 0.948 | 0.925 | 0.991 | 0.991 | 0.933
23 | NCI-H2228 | – | – | – | – | – | 0.952 | 0.966 | 1.11 | 1.06 | 0.758 | 0.723 | 0.87 | 0.825 | 0.764 | 0.723
24 | IA-LM | – | – | – | – | – | 0.842 | 0.757 | 0.795 | 0.92 | 0.656 | 0.933 | 1.04 | 1.11 | 1.17 | 0.729
25 | NCI-H1703 | – | – | – | – | – | 0.305 | 0.208 | 0.226 | 0.365 | 0.218 | 0.297 | 0.316 | 0.4 | 0.336 | 0.342
26 | NCI-H2170 | 0.462 | 0.421 | 0.424 | 0.445 | 0.439 | – | – | – | – | – | 0.996 | 0.985 | 1 | 1.05 | 1.01
27 | NCI-H1793 | 0.545 | 0.495 | 0.566 | 0.442 | 0.529 | – | – | – | – | – | 0.618 | 0.752 | 0.822 | 0.865 | 0.597
